Reference: paper PMC5282848, “Ancient coexistence of norepinephrine, tyramine, and octopamine signaling in bilaterians” (BMC Biology, 2017)
Read-outs that look alike come from different tables or passages of the source. Each block holds one molecule with its values, some of them ahead of it.

What was measured:
Assay in all cases: Ca2+ mobilization, GFP-apoaequorin luminescence in CHO-K1 with Gα-16
[1] = target: T1, P. dumerilii Octopamine α (Platynereis dumerilii, UniProt A0A1J0F445); type: cell-based
T1 construct: full-length in pcDNA3.1(+), expressed in CHO-K1 with Gα-16 and GFP-apoaequorin
T1 sequence (A0A1J0F445 1-603): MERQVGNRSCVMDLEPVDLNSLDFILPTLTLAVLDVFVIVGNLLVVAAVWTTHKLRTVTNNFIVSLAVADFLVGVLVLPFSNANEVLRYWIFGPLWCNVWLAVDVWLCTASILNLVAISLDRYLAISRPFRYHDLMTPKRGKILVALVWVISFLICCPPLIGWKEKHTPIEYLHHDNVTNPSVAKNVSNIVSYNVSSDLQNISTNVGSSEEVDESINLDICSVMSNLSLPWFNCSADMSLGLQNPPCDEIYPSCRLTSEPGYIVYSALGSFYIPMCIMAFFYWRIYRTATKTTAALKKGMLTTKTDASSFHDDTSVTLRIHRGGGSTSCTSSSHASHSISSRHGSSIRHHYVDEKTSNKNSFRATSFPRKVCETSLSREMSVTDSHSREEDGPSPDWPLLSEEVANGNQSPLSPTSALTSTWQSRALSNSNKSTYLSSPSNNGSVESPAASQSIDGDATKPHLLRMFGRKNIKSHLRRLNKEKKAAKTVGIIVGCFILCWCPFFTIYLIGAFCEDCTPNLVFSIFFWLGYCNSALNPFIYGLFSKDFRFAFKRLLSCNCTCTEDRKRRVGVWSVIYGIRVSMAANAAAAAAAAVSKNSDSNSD
Description: Ca2+ mobilization, GFP-apoaequorin luminescence in CHO-K1 with Gα-16 on P. dumerilii Octopamine α

[2] = tested on: T2, S. kowalevskii Octopamine α; type: cell-based, Saccoglossus kowalevskii; conditions: agonist, HBSS, 1.8 mM Ca2+, 10 mM glucose
T2 construct: gene Octopamine alpha receptor; full-length in pcDNA3.1(+), expressed in CHO-K1 with Gα-16 and GFP-apoaequorin
Description: Ca2+ mobilization, GFP-apoaequorin luminescence in CHO-K1 with Gα-16 on S. kowalevskii Octopamine α

P. dumerilii Tyramine-2 = target: T3, P. dumerilii Tyramine-2 (Platynereis dumerilii, UniProt A0A1J0F4P1); type: cell-based
T3 construct: full-length in pcDNA3.1(+), expressed in CHO-K1 with Gα-16 and GFP-apoaequorin
T3 sequence (A0A1J0F4P1 1-460): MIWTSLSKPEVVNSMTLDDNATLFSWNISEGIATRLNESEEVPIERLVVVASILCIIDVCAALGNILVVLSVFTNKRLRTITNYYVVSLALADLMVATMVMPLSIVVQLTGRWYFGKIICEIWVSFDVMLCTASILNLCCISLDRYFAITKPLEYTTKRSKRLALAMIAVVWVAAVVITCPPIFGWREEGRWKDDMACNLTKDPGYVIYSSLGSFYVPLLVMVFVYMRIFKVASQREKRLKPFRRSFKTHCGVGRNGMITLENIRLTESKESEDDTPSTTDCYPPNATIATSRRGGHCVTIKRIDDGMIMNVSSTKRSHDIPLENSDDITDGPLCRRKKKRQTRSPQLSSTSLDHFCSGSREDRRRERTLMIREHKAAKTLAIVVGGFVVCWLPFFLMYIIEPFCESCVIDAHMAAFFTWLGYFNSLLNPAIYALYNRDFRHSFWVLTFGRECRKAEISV
Description: Ca2+ mobilization, GFP-apoaequorin luminescence in CHO-K1 with Gα-16 on P. dumerilii Tyramine-2

[3] = target: T4, S. kowalevskii Tyramine-2B (Saccoglossus kowalevskii, UniProt A0ABM0LZ08); type: cell-based
T4 construct: gene LOC102801068; full-length in pcDNA3.1(+), expressed in CHO-K1 with Gα-16 and GFP-apoaequorin
T4 sequence (A0ABM0LZ08 1-489): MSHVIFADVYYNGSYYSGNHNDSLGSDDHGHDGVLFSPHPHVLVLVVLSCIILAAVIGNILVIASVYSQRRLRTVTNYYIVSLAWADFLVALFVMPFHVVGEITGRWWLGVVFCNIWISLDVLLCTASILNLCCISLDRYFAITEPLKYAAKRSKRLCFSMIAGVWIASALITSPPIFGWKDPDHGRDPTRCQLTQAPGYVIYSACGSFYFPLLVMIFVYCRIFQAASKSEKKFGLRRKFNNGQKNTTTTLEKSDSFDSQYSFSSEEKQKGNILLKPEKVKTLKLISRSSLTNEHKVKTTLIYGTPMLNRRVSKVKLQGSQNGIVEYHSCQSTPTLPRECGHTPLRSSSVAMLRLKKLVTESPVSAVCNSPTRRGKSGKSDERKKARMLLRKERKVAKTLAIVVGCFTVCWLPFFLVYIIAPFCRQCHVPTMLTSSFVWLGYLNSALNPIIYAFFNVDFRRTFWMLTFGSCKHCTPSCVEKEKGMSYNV
Description: Ca2+ mobilization, GFP-apoaequorin luminescence in CHO-K1 with Gα-16 on S. kowalevskii Tyramine-2B

[4] = target: T5, S. kowalevskii Tyramine-1 (Saccoglossus kowalevskii, UniProt A0ABM0H1U8); type: cell-based
T5 construct: gene LOC100368763; full-length in pcDNA3.1(+), expressed in CHO-K1 with Gα-16 and GFP-apoaequorin
T5 sequence (A0ABM0H1U8 1-430): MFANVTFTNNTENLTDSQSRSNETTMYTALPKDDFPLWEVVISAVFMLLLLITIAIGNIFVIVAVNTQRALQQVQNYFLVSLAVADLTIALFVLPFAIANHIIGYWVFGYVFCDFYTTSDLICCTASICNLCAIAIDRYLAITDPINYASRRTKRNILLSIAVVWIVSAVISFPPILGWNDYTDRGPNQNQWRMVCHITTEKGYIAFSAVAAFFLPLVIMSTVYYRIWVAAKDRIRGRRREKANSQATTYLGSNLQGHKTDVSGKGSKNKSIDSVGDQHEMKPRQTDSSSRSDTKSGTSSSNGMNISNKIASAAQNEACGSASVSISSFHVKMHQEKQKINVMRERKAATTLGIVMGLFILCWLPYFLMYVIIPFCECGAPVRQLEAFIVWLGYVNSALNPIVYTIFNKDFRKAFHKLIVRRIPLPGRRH
Description: Ca2+ mobilization, GFP-apoaequorin luminescence in CHO-K1 with Gα-16 on S. kowalevskii Tyramine-1

[5] = target: T6, S. kowalevskii Tyramine-2A (Saccoglossus kowalevskii, UniProt A0ABM0GNT8); type: cell-based
T6 construct: gene LOC100366600; full-length in pcDNA3.1(+), expressed in CHO-K1 with Gα-16 and GFP-apoaequorin
T6 sequence (A0ABM0GNT8 1-458): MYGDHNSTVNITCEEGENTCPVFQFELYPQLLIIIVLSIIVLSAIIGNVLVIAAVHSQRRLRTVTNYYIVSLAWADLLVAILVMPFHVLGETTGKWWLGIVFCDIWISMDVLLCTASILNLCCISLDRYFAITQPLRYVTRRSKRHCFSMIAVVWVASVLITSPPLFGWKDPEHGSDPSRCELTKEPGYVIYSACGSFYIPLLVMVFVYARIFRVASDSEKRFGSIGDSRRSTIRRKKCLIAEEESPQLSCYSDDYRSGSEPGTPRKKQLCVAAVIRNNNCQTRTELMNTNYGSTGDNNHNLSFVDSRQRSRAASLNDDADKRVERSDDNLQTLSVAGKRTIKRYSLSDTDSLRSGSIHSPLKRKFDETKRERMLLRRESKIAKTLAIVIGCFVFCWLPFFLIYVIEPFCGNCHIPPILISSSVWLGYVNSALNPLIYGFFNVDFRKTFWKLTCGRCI
Description: Ca2+ mobilization, GFP-apoaequorin luminescence in CHO-K1 with Gα-16 on S. kowalevskii Tyramine-2A

P. dumerilii Tyramine-1 = target: T7, P. dumerilii Tyramine-1 (Platynereis dumerilii, UniProt A0A0K0PUV5); type: cell-based
T7 construct: full-length in pcDNA3.1(+), expressed in CHO-K1 with Gα-16 and GFP-apoaequorin
T7 sequence (A0A0K0PUV5 1-428): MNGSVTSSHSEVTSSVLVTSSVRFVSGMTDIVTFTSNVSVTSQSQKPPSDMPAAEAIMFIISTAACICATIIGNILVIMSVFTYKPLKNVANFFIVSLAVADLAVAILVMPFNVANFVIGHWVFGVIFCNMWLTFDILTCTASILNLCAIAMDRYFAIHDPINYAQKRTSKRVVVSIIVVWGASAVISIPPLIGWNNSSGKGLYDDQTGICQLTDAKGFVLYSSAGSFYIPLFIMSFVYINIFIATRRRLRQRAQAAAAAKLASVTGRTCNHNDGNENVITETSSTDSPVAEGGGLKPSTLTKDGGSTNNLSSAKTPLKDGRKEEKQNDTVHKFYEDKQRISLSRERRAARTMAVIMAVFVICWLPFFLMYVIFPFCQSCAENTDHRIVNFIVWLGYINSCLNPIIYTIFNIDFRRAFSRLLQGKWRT
Description: Ca2+ mobilization, GFP-apoaequorin luminescence in CHO-K1 with Gα-16 on P. dumerilii Tyramine-1

Compound: Clc1cccc(Cl)c1NC1=NCCN1 [clonidine]
EC50 ([1]; read-out: Clonidine): 140 nM
EC50 ([2]; read-out: Clonidine): 160 nM

Compound: NC[C@H](O)c1ccc(O)cc1 [octopamine]
EC50 ([1]; read-out: Octopamine): 260 nM
EC50 ([2]; read-out: Octopamine): 690 nM

Compound: NCCc1ccc(O)cc1 [tyramine]
EC50 (P. dumerilii Tyramine-2): 7 nM
EC50 [3]: 5.9 nM
EC50 [4]: 86000 nM
EC50 [5]: 1 nM
EC50 (P. dumerilii Tyramine-1): 11 nM

IC50 ([1]; read-out: Yohimbine): 9 nM
Compound: COC(=O)[C@@H]1[C@H]2C[C@H]3c4[nH]c5ccccc5c4CCN3C[C@@H]2CC[C@@H]1O [yohimbine]
